Laboratory results: article PMC2653189 (PLoS ONE, 2009)
Like-named read-outs stand apart in the source and are kept apart here.

Columns and labels:
[1] = test system: IFN-γ-mediated Stat1 phosphorylation; assay: Immunoblot of IFN-γ-mediated Stat1 phosphorylation in HepG2 cells; assay type: cell-based, human; details: compound 300 µM 1 hour, IFN-γ 30 ng/ml 30 min
Protocol: (§1) The human hepatocellular carcinoma cell line (HepG2) was grown in 6-well plates under standard conditions. Cells were pretreated with compounds (0, 1, 3, 10, 30, 100 and 300 µM) for 1 hour then stimulated under optimal conditions with either interleukin-6 (IL-6; 30 ng/ml for 30 min) to activate Stat3 or interferon gamma (IFN-γ; 30 ng/ml for 30 min) to activate Stat1 [28]. Cultures were then harvested and proteins extracted using high-salt buffer, as described. Briefly, extracts were mixed with 2× sodium dodecyl sulfate (SDS) sample buffer (125 mM Tris-HCL pH 6.8; 4% SDS; 20% glycerol; 10% 2-mercaptoethanol) at a 1∶1 ratio and heated for 5 minutes at 100°C. Proteins (20 µg) were separated by 7.5% SDS-PAGE and transferred to polyvinylidene fluoride (PVDF) membrane (Millipore, Waltham, MA) and immunoblotted. Prestained molecular weight markers (BioRad; Hercules, CA) were included in each gel. Membranes were probed serially with antibody against Stat1 pY701 or Stat3 pY705 followed by antibody against Stat1 or Stat3 (Transduction labs, Lexington, KY) then antibody against β–actin (Abcam, Cambridge, MA). Membranes were stripped between antibody probing using Restore™ Western Blot Stripping Buffer (Thermo Fisher Scientific Inc., Waltham, MA) per the manufacturer's instructions. Horseradish peroxidase-conjugated goat-anti-mouse IgG was used as the secondary antibody (Invitrogen Carlsbad, CA) and the membranes were developed with enhanced chemiluminescence (ECL) detection system (Amersham Life Sciences Inc.; Arlington Heights, IL.).
Figure 2 Effect of compounds on ligand-mediated Stat3 and Stat1 phosphorylation. […] Cells were then stimulated with IL-6 (30 ng/ml) for 30 min. Protein extracts of cells were separated by SDS-PAGE, blotted and developed serially with antibodies to pStat3, total Stat3 and β-actin. Blots were stripped between each antibody probing. Band intensities were quantified by densitometry. The value of each pStat3 band was divided by its corresponding total Stat3 band intensity; the results were normalized to the DMSO-treated control value. This value was plotted as a function of the log compound concentration. The best-fitting curve was determined using 4-Parameter Logistic Model/Dose Response/XLfit 4.2, IDBS software and was used to calculate the IC50 value (Table 1). Each panel is representative of 3 or more experiments. In panel G, HepG2 cells were pretreated with DMSO alone or DMSO containing each of the compounds at a concentration of 300 µM for 60 min. Cells were then stimulated with IFN-γ (30 ng/ml) for 30 min. Protein extracts of cells were separated by SDS-PAGE and immunoblotted serially with antibodies to pStat1, total Stat1 and β-actin. Blots were stripped between each immunoblotting. The results shown are representative of 2 or more experiments.

[2] = test system: IL-6-mediated phosphorylation of Stat3; assay: Immunoblot of IL-6-mediated Stat3 phosphorylation in HepG2 cells; assay type: cell-based; details: Homo sapiens, compound 60 min, then IL-6 30 ng/ml 30 min, read-out: pStat3 IC50, inhibition of IL-6-mediated Stat3 phosphorylation
Protocol: as §1
Figure 2 Effect of compounds on ligand-mediated Stat3 and Stat1 phosphorylation. […] Cells were then stimulated with IL-6 (30 ng/ml) for 30 min. Protein extracts of cells were separated by SDS-PAGE, blotted and developed serially with antibodies to pStat3, total Stat3 and β-actin. Blots were stripped between each antibody probing. Band intensities were quantified by densitometry. […] The best-fitting curve was determined using 4-Parameter Logistic Model/Dose Response/XLfit 4.2, IDBS software and was used to calculate the IC50 value (Table 1). […]

[3] = test system: IL-6-mediated Stat3 nuclear translocation (GFP-Stat3α); assay: HTFM nuclear translocation assay in MEF/GFP-Stat3α cells; assay type: cell-based, murine
Protocol: Confocal and high-throughput fluorescence microscopy (HTFM) of MEF/GFP-Stat3α cells were performed as described. Briefly, for confocal fluorescence microscopy, cells were grown in 6-well plates containing a cover slip. For HTFM, cells were seeded into 96-well CC3 plates at a density of 5,000 cells/well using an automated plating system. Cells were cultured under standard conditions until 85–90% confluent. Cells were pre-treated with compound for 1 hour at 37°C then stimulated with IL-6 (200 ng/ml) and IL-6sR (250 ng/ml) for 30 minutes to provide optimal Stat3 activation and nuclear translocation in these cells, as described. Cells were fixed with 4% formaldehyde in PEM Buffer (80 mM Potassium PIPES, pH 6.8, 5 mM EGTA pH 7.0, 2 mM MgCl2) for 30 minutes at 4°C, quenched in 1 mg/ml of NaBH4 (Sigma) in PEM buffer and counterstained for 1 min in 4,6-diamidino-2-phenylindole (DAPI; Sigma; 1 mg/ml) in PEM buffer. Cover slips were examined by confocal fluorescent microscopy. Plates were analyzed by automated HTFM using the Cell Lab IC Image Cytometer (IC100) platform and Cytoshop Version 2.1 analysis software (Beckman Coulter). Nuclear translocation is quantified by using the fraction localized in the nucleus (FLIN) measurement. FLIN values were normalized by subtracting the FLIN for unstimulated cells then dividing this difference by the maximum difference (delta, Δ) in FLIN (FLIN in cells stimulated with IL-6/sIL-6R in the absence of compound minus FLIN of unstimulated cells). This ratio was multiplied by 100 to obtain the percentage of maximum difference in FLIN and was plotted, where indicated, as a function of the log compound concentration. The best-fitting curve and IC50 value were determined using 4-Parameter Logistic Model/Dose Response/XLfit 4.2, IDBS software.
Figure 4 Inhibition of cytoplasmic-to-nuclear translocation of Stat3 assessed by confocal and high-throughput fluorescence microscopy (HTFM). […] Coverslips were examined by confocal fluorescent microscopy using filters to detect GFP (column one), DAPI (column two) or both (merge; column three). In panel B, MEF-GFP-Stat3 cells were grown in 96-well plates with optical glass bottoms and pre-treated with the indicated compound at the indicated concentrations in quadruplicate for 1 hour then stimulated with IL-6 (200 ng/ml) and IL-6sR (250 ng/ml) for 30 minutes. Cells were fixed and the plates were examined by high-throughput microscopy to determine the fluorescence intensity in the nucleus (FLIN). The percent of maximum change (delta, Δ) in FLIN was calculated as described in the Methods and plotted as a function of the log of the compound concentration. […] Best-fit curves were determined using 4-Parameter Logistic Model/Dose Response/XLfit 4.2, IDBS software and were used to calculate the IC50 values (Table 2).

Stat3 = Stat3 (Homo sapiens, UniProt P40763); assay: Stat3/pY-peptide binding assay (SPR, BIAcore)
Chain of Stat3 (P40763 whole entry, species assumed): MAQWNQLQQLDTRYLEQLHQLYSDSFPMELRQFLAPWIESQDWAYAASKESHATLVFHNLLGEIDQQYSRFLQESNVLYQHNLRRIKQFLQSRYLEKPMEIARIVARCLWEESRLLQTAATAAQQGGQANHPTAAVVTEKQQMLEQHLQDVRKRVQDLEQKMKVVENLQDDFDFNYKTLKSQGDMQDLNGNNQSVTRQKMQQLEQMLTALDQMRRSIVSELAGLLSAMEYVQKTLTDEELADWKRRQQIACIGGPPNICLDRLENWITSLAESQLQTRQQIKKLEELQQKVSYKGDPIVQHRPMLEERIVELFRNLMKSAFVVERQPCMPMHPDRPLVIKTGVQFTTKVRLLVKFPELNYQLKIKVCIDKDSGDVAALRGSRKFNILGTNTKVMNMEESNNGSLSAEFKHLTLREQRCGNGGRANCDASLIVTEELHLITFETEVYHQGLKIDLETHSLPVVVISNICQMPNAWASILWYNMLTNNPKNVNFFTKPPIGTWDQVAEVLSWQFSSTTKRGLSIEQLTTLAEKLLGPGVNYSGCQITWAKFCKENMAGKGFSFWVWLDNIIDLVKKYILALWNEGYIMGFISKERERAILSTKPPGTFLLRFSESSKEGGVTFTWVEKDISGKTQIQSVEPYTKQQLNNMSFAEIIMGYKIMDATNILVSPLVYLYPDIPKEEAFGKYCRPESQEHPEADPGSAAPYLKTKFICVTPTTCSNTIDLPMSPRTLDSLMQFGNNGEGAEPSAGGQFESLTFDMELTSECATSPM
Protocol: A control (Stat3 with DMSO but without compound) was run at the beginning and the end of each cycle (40 sample injections) to ensure that the integrity of the sensor chip was maintained throughout the cycle run. The average of the two controls was normalized to 100% and used to evaluate the effect of each compound on Stat3 binding. Responses were normalized by dividing the value at 2 min by the response obtained in the absence of compounds at 2 min and multiplying by 100.

[4] = test system: breast cancer cell lines tested; assay: Apoptosis assay, all breast cancer cell lines tested; assay type: cell-based, Human; details: any of the breast cancer cell lines tested; data not shown
Protocol: Human breast carcinoma cell lines MDA-MB-468, MDA-MB-231, MBA-MD-435 and MCF7 were kindly provided by Dr. Powel H. Brown (Breast Cancer Center, Baylor College of Medicine). Breast cancer cell line, MDA-MB-453 was kindly provided by Dr. Shou Jiang (Breast Cancer Center, Baylor College of Medicine). All cell lines were grown in DMEM medium supplemented with 10% fetal bovine serum (FBS), 25,000 units penicillin G, 25,000 µg streptomycin, and 131.4 mg L-Glutamine and cultured in the incubator under the condition of 95% air, 5% CO2 at 37°C [33]. Cells were seeded at 2,500 cells/cm^2 into 12-well plates. At 80% confluency, cells were washed with PBS and supplemented with fresh medium containing compound or the topoisomerase I-inhibitor, camptothecin, at 0, 0.1, 0.3, 1, 3, 10, 30, 100, 300 µM. At 24 hours, treatment was terminated by removing the medium from each well. Cells were lysed with cell lysis buffer (600 µl for 30 minutes at 25°C). […] The percent maximum nucleosome level was calculated by dividing the nucleosome level by the maximum nucleosome level achieved in the assay and multiplying by 100. This value was plotted as a function of the log compound concentration and the best-fitting curve and EC50 value determined using 4-Parameter Logistic Model/Dose Response/XLfit 4.2, IDBS software.

MDA-MB-468 = assay: Breast cancer cell line apoptosis assay (nucleosome ELISA); assay type: cell-based; details: Homo sapiens, 24 hr, read-out: EC50 apoptosis induction
Protocol: (§2) Human breast carcinoma cell lines MDA-MB-468, MDA-MB-231, MBA-MD-435 and MCF7 were kindly provided by Dr. Powel H. Brown (Breast Cancer Center, Baylor College of Medicine). Breast cancer cell line, MDA-MB-453 was kindly provided by Dr. Shou Jiang (Breast Cancer Center, Baylor College of Medicine). All cell lines were grown in DMEM medium supplemented with 10% fetal bovine serum (FBS), 25,000 units penicillin G, 25,000 µg streptomycin, and 131.4 mg L-Glutamine and cultured in the incubator under the condition of 95% air, 5% CO2 at 37°C [33]. Cells were seeded at 2,500 cells/cm^2 into 12-well plates. At 80% confluency, cells were washed with PBS and supplemented with fresh medium containing compound or the topoisomerase I-inhibitor, camptothecin, at 0, 0.1, 0.3, 1, 3, 10, 30, 100, 300 µM. At 24 hours, treatment was terminated by removing the medium from each well. Cells were lysed with cell lysis buffer (600 µl for 30 minutes at 25°C). Cell lysate (200 µl) was centrifuged at 200 g for 10 minutes and 20 µl of each supernatant was assayed for nucleosomes using the Cell Death Detection ELISA (Roche Applied Science) as described by the manufacturer. The percent maximum nucleosome level was calculated by dividing the nucleosome level by the maximum nucleosome level achieved in the assay and multiplying by 100. This value was plotted as a function of the log compound concentration and the best-fitting curve and EC50 value determined using 4-Parameter Logistic Model/Dose Response/XLfit 4.2, IDBS software.
(§3) Figure 5 Apoptosis induction of breast cancer cell lines by compounds; selective apoptosis of cell lines that are Stat3 dependent. MDA-MB-468 (panel A), MDA-MB-231 (panel B), MDA-MB-435 (panel C), MCF7 (panel D) and MDA-MB-453 (panel E) were seeded in 12-well plates, grown overnight then treated with the indicated compound for 24 hr. Cells were centrifuged and the supernatants assayed for nucleosome levels by ELISA. The percent maximum nucleosome level was calculated (nucleosome level ÷ maximum nucleosome level achieved in the assay ×100) and plotted as a function of the log compound concentration. The best-fitting curve was determined using 4-ParameterLogistic Model/Dose Response One Site/XLfit 4.2, IDBS software and was used to determine the EC50 value (Table 3).

MCF7 = assay: as above; assay type: cell-based; details: Homo sapiens, 24 hr, read-out: EC50 apoptosis induction
Protocol: as §2, §3

MDA-MB-453 = assay: as above; assay type: cell-based; details: Homo sapiens, 24 hr, read-out: EC50 apoptosis induction
Protocol: as §2, §3

MDA-MB-231 = assay: as above; assay type: cell-based; details: Homo sapiens, 24 hr, read-out: EC50 apoptosis induction
Protocol: as §2, §3

MDA-MB-435 = assay: as above; assay type: cell-based; details: Homo sapiens, 24 hr, read-out: EC50 apoptosis induction
Protocol: as §2, §3

[5] = test system: breast cancer cell lines with constitutive Stat3 activity—MDA-MB-468, MDA-MB-231 and MDA-MB-435; assay: Apoptosis assay, summary over the cell lines with constitutive Stat3 activity; assay type: cell-based; details: Homo sapiens
Protocol: as §2, with “100.” for “100. This value was plotted as a function of the log compound concentration and the best-fitting curve and EC50 value determined using 4-Parameter Logistic Model/Dose Response/XLfit 4.2, IDBS software.”
as §3, with “MDA-MB-468” for “Figure 5 Apoptosis induction of breast cancer cell lines by compounds; selective apoptosis of cell lines that are Stat3 dependent. MDA-MB-468”

[6] = test system: cell lines MDA-MB-453 and MCF7; assay: Apoptosis assay, summary over the cell lines without constitutive Stat3 activity; assay type: cell-based; details: Homo sapiens
Protocol: as §2, with “100.” for “100. This value was plotted as a function of the log compound concentration and the best-fitting curve and EC50 value determined using 4-Parameter Logistic Model/Dose Response/XLfit 4.2, IDBS software.”
as §3, with “MDA-MB-468” for “Figure 5 Apoptosis induction of breast cancer cell lines by compounds; selective apoptosis of cell lines that are Stat3 dependent. MDA-MB-468”

[7] = 24 hr, read-out: EC50 apoptosis induction, range over three cell lines

SMILES	Block of IFN-γ-stimulated Stat1 phosphorylation [1]	IC50 [2] [µM]	IC50 ([3]; Mus musculus, compound 1 hour, then IL-6 200 ng/ml and IL-6sR 250 ng/ml 30 min, read-out: HTFM IC50, inhibition of IL-6-mediated Stat3 nuclear translocation) [µM]	Block of ligand-mediated nuclear translocation of GFP-Stat3α (in words) ([3]; preincubation with compound)	IC50 (Stat3) [µM]	Apoptosis induction (in words) [4]	EC50 (MDA-MB-468) [µM]	EC50 (MCF7) [µM]	EC50 (MDA-MB-453) [µM]	EC50 (MDA-MB-231) [µM]	EC50 (MDA-MB-435) [µM]	EC50 [5, 7] [µM]	EC50 ([5]; read-out: EC50 apoptosis induction, mean±SD over three cell lines) [µM]	EC50 ([6]; read-out: EC50 apoptosis induction, mean±SD over MDA-MB-453 and MCF7) [µM]	EC50 ([6]; concentrations up to 300 µM, read-out: EC50 apoptosis induction, MDA-MB-453 and MCF7) [µM]
CCN1C(=O)C(=Cc2ccc(-c3cc(C(=O)O)ccc3Cl)o2)C(=O)N(CC)C1=S [Cpd30-12, 4-chloro-3-{5-[(1,3-diethyl-4,6-dioxo-2-thioxotetrahydro-5(2H)-pyrimidinylidene)methyl]-2-furyl}benzoic acid]	blocked Stat1 phosphorylation	60	> 300	not	114	–	–	–	–	–	–	–	–	–	–
COC(=O)Cc1c(C)c2ccc(OCc3ccc(C(=O)OC)cc3)c(C)c2oc1=O [Cpd3-7, methyl 4-({[3-(2-methoxy-2-oxoethyl)-4,8-dimethyl-2-oxo-2H-chromen-7-yl]oxy}methyl)benzoate]	did not	–	–	–	–	neither Cpd3-2 nor Cpd3-7 induced apoptosis	–	–	–	–	–	–	–	–	–
CC[C@@]1(O)C(=O)OCc2c1cc1n(c2=O)Cc2cc3ccccc3nc2-1 [CAM, camptothecin, reference compound]	–	–	–	–	–	–	0.74	0.13	0.93	1.62	1.64	–	–	–	–
O=C(O)CSc1cc(NS(=O)(=O)c2ccc(C(=O)O)cc2)c2ccccc2c1O [Cpd188, 4-[({3-[(carboxymethyl)thio]-4-hydroxy-1-naphthyl}amino)sulfonyl]benzoic acid]	did not	–	–	–	–	–	0.73	17.2	15.5	3.96	7.01	0.7 to 7	3.9 ± 3.1	16.4 ± 1.2	–
CCN1C(=O)C(=Cc2ccc(-c3ccc(C(=O)O)cc3)o2)SC1=S [Cpd30, 4-{5-[(3-ethyl-4-oxo-2-thioxo-1,3-thiazolidin-5-ylidene)methyl]-2-furyl}benzoic acid]	did not	–	–	–	–	–	6.42	> 300	> 300	92	16.3	6.4 to 92.2	–	–	> 300
